Results published in ChEMBL document CHEMBL2203069, “Synthesis and structure-activity relationships of a novel series of pyrimidines as potent inhibitors of TBK1/IKKε kinases” (Bioorg Med Chem Lett, 2012).
Active and inactive are the calls of the source. No cut-off for these calls is given here.

Experiments:
[1] = biological target: T1, Serine/threonine-protein kinase BRSK2 (Homo sapiens, UniProt Q8IWQ3); experiment: Inhibition of BRSK2
T1 sequence (Q8IWQ3 whole entry): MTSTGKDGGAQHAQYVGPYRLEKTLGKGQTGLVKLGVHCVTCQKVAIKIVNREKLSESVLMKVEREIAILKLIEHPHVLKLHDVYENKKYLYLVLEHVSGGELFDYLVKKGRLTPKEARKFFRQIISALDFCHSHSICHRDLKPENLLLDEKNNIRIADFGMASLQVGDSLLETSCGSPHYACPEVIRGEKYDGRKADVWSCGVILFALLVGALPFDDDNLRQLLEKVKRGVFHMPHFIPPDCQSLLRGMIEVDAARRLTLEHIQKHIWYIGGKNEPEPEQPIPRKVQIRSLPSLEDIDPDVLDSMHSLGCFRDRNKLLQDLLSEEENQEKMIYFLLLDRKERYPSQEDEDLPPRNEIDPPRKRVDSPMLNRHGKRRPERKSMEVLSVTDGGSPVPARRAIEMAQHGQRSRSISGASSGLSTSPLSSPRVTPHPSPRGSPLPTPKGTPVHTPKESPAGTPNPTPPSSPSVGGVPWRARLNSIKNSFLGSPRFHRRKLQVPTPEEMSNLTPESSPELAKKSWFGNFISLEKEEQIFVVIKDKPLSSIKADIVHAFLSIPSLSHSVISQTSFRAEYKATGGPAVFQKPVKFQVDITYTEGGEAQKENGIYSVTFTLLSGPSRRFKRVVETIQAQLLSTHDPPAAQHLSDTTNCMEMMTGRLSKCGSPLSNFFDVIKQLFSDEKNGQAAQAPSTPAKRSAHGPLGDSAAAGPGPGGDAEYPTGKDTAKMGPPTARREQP

[2] = Half life in CD-1 mouse at 1 mg/kg, iv; type: ADME, organism-based; parameters: dose 1 mg/kg, route intravenous; settings: in vivo
[3] = system: Mus musculus; experiment: Antiinflammatory activity in mouse assessed as inhibition of LPS-induced IFN-beta production at 15 mg/kg, ip administered 30 mins prior LPS challenge measured 1 hr post challenge by ELISA; type: functional, organism-based; parameters: dose 15 mg/kg
[4] = Volume of distribution in CD-1 mouse at 1 mg/kg, iv; type: ADME, organism-based; parameters: dose 1 mg/kg, route intravenous; settings: in vivo
[5] = biological target: Cyclin-dependent kinase 2 (Homo sapiens, UniProt P24941); experiment: Inhibition of CDK2
[6] = Clearance in CD-1 mouse at 1 mg/kg, iv; type: ADME, organism-based; parameters: dose 1 mg/kg, route intravenous; settings: in vivo
[7] = Oral bioavailability in CD-1 mouse at 5 mg/kg; type: ADME, organism-based; settings: in vivo
[8] = Inhibition of AMPK
[9] = biological target: MAP/microtubule affinity-regulating kinase 3 (Homo sapiens, UniProt P27448); experiment: Inhibition of MARK3
[10] = biological target: T2, Serine/threonine-protein kinase TBK1 (Mus musculus, UniProt Q9WUN2); experiment: Inhibition of TBK1-mediated RANTES release in LPS-stimulated mouse RAW264.7 cells compound incubated for 30 mins prior LPS challenge measured after 6 hrs by ELISA; type: cell-based; settings: read-out: IC50
T2 sequence (Q9WUN2 whole entry): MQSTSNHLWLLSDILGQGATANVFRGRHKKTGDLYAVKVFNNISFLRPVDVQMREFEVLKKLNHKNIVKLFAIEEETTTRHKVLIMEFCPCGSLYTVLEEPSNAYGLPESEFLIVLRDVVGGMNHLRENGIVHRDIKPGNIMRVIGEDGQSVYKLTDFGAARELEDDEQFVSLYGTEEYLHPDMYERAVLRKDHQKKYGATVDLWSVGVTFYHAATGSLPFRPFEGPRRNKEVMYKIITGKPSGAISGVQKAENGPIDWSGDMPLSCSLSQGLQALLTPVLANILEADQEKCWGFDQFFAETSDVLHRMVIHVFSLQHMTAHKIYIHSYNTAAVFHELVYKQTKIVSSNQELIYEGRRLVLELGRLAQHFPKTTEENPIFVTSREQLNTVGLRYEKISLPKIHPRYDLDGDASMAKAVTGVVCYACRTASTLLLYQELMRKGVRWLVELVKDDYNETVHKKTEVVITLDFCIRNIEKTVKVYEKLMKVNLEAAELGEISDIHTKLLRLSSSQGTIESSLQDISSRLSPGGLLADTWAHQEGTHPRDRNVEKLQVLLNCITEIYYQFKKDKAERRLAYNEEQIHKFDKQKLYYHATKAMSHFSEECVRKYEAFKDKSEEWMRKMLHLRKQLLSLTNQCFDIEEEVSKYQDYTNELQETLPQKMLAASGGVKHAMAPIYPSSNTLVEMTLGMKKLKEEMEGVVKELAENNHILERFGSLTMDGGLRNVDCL

[11] = Metabolic stability in human liver microsomes assessed as compound turnover after 40 mins; type: ADME, Microsome; settings: read-out: Drug metabolism
[12] = Permeability from apical to basolateral side of human Caco2 cells; type: ADME, cell-based; settings: Caco-2, read-out: permeability
[13] = Metabolic stability in mouse liver microsomes assessed as compound turnover after 30 mins; type: ADME, Microsome; settings: read-out: Drug metabolism
[14] = system: Mus musculus; experiment: Toxicity in mouse at >= 20 mg/kg, ip; type: organism-based; parameters: dose 20 mg/kg, route intraperitoneal; settings: in vivo
[15] = Half life in CD-1 mouse at 5 mg/kg, po; type: ADME, organism-based; parameters: dose 5 mg/kg, route oral; settings: in vivo
[16] = biological target: T3, Inhibitor of nuclear factor kappa-B kinase subunit epsilon (Homo sapiens, UniProt Q14164); experiment: Inhibition of IKKepsilon
T3 sequence (Q14164 whole entry): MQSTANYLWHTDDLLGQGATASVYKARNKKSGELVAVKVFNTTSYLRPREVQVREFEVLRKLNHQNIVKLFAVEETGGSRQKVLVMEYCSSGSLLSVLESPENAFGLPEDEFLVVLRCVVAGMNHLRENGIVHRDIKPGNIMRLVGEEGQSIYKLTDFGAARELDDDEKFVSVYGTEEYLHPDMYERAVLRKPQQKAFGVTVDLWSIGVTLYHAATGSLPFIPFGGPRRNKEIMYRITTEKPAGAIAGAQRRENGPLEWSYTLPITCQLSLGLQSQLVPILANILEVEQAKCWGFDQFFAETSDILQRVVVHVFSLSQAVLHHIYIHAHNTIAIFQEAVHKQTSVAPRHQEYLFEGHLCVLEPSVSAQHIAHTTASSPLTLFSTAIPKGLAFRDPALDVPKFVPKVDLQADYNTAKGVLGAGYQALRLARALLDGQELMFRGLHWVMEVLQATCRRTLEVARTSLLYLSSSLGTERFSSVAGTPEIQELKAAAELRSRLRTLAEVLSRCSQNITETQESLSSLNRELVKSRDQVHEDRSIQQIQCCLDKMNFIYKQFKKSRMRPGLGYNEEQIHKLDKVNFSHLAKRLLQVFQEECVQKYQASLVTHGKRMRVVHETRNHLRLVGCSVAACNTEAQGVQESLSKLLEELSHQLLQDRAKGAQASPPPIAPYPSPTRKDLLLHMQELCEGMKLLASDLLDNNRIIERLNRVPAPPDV

[17] = biological target: MAP kinase-interacting serine/threonine-protein kinase 1 (Homo sapiens, UniProt Q9BUB5); experiment: Inhibition of MNK1
[18] = Efflux ratio of permeability from basolateral to apical side to apical to basolateral side in human Caco2 cells; type: ADME, cell-based; settings: Caco-2
[19] = Inhibition of VEGFR
[20] = biological target: Aurora kinase B (Homo sapiens, UniProt Q96GD4); experiment: Inhibition of Aurora B
[21] = biological target: T4, Serine/threonine-protein kinase TBK1 (Homo sapiens, UniProt Q9UHD2); experiment: Inhibition of TBK1 by radiometry
T4 sequence (Q9UHD2 whole entry): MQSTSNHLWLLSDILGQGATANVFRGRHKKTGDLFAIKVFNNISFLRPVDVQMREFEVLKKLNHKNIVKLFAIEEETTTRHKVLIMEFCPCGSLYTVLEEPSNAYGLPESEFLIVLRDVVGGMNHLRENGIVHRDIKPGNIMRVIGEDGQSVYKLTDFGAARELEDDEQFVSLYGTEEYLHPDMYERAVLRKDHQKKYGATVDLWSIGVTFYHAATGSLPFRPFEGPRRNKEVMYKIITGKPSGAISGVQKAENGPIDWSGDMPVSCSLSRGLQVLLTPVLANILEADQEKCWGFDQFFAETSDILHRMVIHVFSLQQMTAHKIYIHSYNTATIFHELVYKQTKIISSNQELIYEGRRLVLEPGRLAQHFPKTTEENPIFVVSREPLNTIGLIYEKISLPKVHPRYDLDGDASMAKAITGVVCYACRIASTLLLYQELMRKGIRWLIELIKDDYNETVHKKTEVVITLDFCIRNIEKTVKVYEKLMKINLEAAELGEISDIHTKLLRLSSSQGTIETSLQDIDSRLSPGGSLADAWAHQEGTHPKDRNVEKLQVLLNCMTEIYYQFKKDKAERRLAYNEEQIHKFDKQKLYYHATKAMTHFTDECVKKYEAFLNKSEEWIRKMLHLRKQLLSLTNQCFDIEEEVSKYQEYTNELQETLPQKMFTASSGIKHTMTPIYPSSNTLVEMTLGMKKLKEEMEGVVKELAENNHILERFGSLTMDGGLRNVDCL

Sequence of MAP kinase-interacting serine/threonine-protein kinase 1 (Q9BUB5 whole entry): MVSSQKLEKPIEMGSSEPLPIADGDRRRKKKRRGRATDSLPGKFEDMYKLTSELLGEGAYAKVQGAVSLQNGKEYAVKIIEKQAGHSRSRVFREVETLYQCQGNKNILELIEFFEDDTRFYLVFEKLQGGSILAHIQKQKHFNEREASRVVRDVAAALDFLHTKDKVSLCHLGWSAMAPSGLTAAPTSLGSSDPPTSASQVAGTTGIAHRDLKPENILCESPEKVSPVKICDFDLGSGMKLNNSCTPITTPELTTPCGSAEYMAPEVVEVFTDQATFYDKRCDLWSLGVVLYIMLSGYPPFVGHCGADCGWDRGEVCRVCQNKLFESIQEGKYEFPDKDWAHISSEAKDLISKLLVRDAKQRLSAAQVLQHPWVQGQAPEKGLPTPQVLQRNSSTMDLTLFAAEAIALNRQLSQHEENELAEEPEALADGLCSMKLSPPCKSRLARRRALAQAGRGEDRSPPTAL
Sequence of Aurora kinase B (Q96GD4 whole entry): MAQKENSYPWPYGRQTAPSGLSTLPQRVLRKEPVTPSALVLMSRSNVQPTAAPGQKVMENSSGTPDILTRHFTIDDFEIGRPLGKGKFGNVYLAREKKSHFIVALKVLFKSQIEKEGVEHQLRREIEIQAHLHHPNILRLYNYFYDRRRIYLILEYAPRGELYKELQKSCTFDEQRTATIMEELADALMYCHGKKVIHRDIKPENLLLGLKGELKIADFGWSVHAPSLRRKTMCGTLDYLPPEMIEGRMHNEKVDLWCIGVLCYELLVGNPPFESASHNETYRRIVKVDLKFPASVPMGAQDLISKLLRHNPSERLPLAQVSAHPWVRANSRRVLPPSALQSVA
Sequence of MAP/microtubule affinity-regulating kinase 3 (P27448 whole entry): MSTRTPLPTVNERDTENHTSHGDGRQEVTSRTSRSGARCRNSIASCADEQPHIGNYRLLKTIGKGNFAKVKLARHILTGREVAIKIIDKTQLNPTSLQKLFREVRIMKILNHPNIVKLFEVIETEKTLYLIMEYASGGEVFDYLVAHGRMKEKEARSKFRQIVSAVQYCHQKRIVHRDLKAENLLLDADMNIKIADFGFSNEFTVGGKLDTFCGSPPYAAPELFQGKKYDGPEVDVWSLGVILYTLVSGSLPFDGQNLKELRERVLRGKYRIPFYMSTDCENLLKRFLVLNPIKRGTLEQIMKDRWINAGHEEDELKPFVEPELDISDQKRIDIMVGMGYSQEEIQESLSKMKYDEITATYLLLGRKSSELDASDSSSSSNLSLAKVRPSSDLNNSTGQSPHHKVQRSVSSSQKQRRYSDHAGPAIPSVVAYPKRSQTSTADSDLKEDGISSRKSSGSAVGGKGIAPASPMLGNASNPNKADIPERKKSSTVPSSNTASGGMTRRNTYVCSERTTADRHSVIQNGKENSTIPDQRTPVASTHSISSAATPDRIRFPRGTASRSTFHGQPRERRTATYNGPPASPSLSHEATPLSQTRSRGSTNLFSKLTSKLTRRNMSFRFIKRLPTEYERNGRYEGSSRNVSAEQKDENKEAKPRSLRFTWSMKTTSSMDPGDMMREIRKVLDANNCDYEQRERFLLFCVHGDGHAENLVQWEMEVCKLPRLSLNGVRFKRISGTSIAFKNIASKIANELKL

Q: Which results are given for `Cn1cc(Nc2ncc(C3CC3)c(NCCCNC(=O)C3CCC3)n2)cn1`?
A: IC50 [1]: 3700 nM; half-life [2]: 27 min; inhibition [3]: Active; Vd [4]: 1.79 L/kg; IC50 [5]: 110 nM; clearance [6]: 79 mL/min/kg; bioavailability [7]: 25%; IC50 [8]: 1800 nM; IC50 [9]: 20 nM; IC50 [10]: 170 nM; metabolised at 40 min [11]: 0%; Papp A→B [12]: 7.4 ×10⁻⁶ cm/s; metabolised at 0.5 h [13]: 21%; Activity [14]: Toxic; half-life [15]: 75 min; IC50 [16]: 100 nM; IC50 [17]: 20000 nM; efflux ratio [18]: 8; IC50 [19]: 1400 nM; IC50 [20]: 190 nM; IC50 [21]: 8 nM

Q: Which IC50 [1] does the source give for `O=C(NCCCNc1nc(Nc2ccc(N3CCOCC3)cc2)ncc1C1CC1)C1CCC1` here?
A: 1900 nM

Q: What about the IC50 [5] of the same compound?
A: 630 nM

Q: What about the IC50 [8] of the same compound?
A: 550 nM

Q: And the IC50 [9]?
A: 12 nM

Q: What about the IC50 [10] of the same compound?
A: 58 nM

Q: And the metabolised at 40 min [11]?
A: 18%

Q: And the Papp A→B [12]?
A: 34 ×10⁻⁶ cm/s

Q: What about the metabolised at 0.5 h [13] of the same compound?
A: 53%

Q: What about the IC50 [16] of the same compound?
A: 30 nM

Q: And the IC50 [17]?
A: 19000 nM

Q: And the efflux ratio [18]?
A: 1

Q: And the IC50 [19]?
A: 3600 nM

Q: What about the IC50 [20] of the same compound?
A: 700 nM

Q: And the IC50 [21]?
A: 6 nM
